# According to patent publication US20110015066A1, “Herbicidal Composition” (priority 2008, published 2011):
# Columns and labels:
# [1] = Accelerated Heat Stability of compositions: active ingredient content before and after 14 days; assay type: physicochemical; conditions: 1 %
# Description: The numbers of formulations were made up as described in above examples. The concentration of Clodinafop propargyl (15%)+Metsulfuron methyl (1%) 16% WP was tested for its active stability at elevated temperature (54±2° C.) and at 3 different pH ranges as shown below.
# The storage stability of the compositions according the present invention was compared with the storage stability of compositions individually and in combination as Tank, mix and plant mixes. The term Tank mix means that clodinafop-propargyl and metsulfuron methyl are mixed in the tank at the time of spraying. The term plant mix means that ready mix of the clodinafop-propargyl and metsulfuron methyl are diluted in the tank before spraying.
# broad leaf weeds = assay: Field trial in wheat: weed population and biomass of broad leaf weeds; assay type: in vivo
# Description: Parts and percentages are by weight unless otherwise indicated. Field tests were made at various trial sites. The performance of the new combination herbicide according to the present invention (Clodinafop 15% and metsulfuron methyl 1%), Metsulfuron methyl 20% WP and Clodinafop-propargyl 15% WP was evaluated against weed flora in wheat crop during rabi season. Recommended package of practices for wheat crop was followed to raise the crop. The herbicide treatments were applied as post emergence spray at 35 days after sowing (DAS). The data on weed population (number/m^2) and dry matter (gm/m^2) was taken after 60 days after sowing and at the harvest. Similar yields (quintal/hectare i.e. q/ha.) and yield attributed parameters like plant height, number of effective tiller, number of grain per ear-head, test weight were recorded at harvest. A statistical analysis of the entire data was carried out.
# The major weed flora recorded in the experimental field were grasses like Phalaris minor and Avena fatua and broad leaf weeds namely Chenopodium album, Rumex sp., Convolvulus arvensis, Melilotus alba, Medicago denticulata, Fumaria sp. Vicia sativa and Anagalis arvensis.
# Susceptible plants = conditions: after post-emergence treatment; cited from earlier work
smiles,measurement,setting,value
"COC(=O)c1ccccc1S(=O)(=O)NC(=O)Nc1nc(C)nc(OC)n1 [metsulfuron methyl, methyl 2-(4-methoxy-6-methyl-1,3,5-triazin-2-ylcarbamoylsulfamoyl)benzoate]",Metsulfuron methyl % degradation,[1]; pH 4.5,24.67%
same,Metsulfuron methyl % degradation,[1]; pH 6.8,12.64%
same,Metsulfuron methyl % degradation,[1]; pH 8.5,4.82%
same,control of broad leaf weeds (in words),broad leaf weeds,superior control of broad leaf weeds only
same,time in which susceptible plants are killed,Susceptible plants,7 to 21 days
